According to patent US9642851B2, “Indolinone derivative as tyrosine kinase inhibitor” (KBP Biosciences Co., Ltd., priority 2012, dated 2017):
Structures can show the parent of a compound that is named as a salt.

Assays:
[1] = test system: 3T3 cells; experiment: In vitro cellular inhibitory activity, h-PDGF-BB stimulated 3T3 proliferation; format: cell-based; conditions: Mus musculus, NIH3T3; h-PDGF-BB 10 ng/ml, incubated for 40 hours, absorbance at 490 nm; read-out: ED50 for the 3T3 in vitro cells
Description: (§1) (1) Thawing cells and Passing cells.
(§2) The 3T3 cells were resuspended in a culture medium containing 10% fetal bovine serum, wherein the cell concentration was 5×10^4/ml. The cell suspension was added to a 96-well plate with 100 μL per well, and incubated overnight; the HUVEC cells were resuspended in a culture medium containing 10% heat-inactivated fetal bovine serum, wherein the cell concentration was 7.5×10^4/ml. The cell suspension was added to a 96-well plate with 100 μL per well. • (3) Treating with drugs: the compounds were diluted to different concentrations, and 60 μLh-PDGF-BB (3T3 cells) and 40 ng/ml h-VEGF-A (HUVEC cells) were added and incubated for 1 hour. • (4) 100 μL of a solution containing the compound and h-PDGF-BB (h-VEGF-A, for the HUVEC cells) was added to a cell culture plate, wherein the final concentration of h-PDGF-BB was 10 ng/ml, the final concentration of h-VEGF-A was 10 ng/ml, and the final concentration for the compounds were 10, 3.3333, 1.1111, 0.3704, 0.1235, 0.0412, 0.0137, 0.0046, and 0.0015 μM. The plate was incubated for 40 hours, and the HUVEC cells were incubated for 89 hours. To each well was added 20 μL Promega Substrate, and the plate was incubated at 37° C. for 7.5 hours, and the HUVEC cells were incubated for 11.5 hours. Then the plate was placed in a microplate reader to read the absorbance at 490 nm. • (5) Data processing
(§3) The curve of the compound concentration vs. Net OD was plotted, wherein Net OD=Compound OD−min. OD. ED50 was calculated according to the following equation: Conc. ED50(x)=(y−b)/a, y=Calculated Net OD for IC50, a=slope, b=intercept.

[2] = biological target: hERG potassium channel (Homo sapiens, UniProt Q12809); experiment: Inhibitory effect on hERG potassium channel with the patch clamp method
Sequence of hERG potassium channel (Q12809 whole entry): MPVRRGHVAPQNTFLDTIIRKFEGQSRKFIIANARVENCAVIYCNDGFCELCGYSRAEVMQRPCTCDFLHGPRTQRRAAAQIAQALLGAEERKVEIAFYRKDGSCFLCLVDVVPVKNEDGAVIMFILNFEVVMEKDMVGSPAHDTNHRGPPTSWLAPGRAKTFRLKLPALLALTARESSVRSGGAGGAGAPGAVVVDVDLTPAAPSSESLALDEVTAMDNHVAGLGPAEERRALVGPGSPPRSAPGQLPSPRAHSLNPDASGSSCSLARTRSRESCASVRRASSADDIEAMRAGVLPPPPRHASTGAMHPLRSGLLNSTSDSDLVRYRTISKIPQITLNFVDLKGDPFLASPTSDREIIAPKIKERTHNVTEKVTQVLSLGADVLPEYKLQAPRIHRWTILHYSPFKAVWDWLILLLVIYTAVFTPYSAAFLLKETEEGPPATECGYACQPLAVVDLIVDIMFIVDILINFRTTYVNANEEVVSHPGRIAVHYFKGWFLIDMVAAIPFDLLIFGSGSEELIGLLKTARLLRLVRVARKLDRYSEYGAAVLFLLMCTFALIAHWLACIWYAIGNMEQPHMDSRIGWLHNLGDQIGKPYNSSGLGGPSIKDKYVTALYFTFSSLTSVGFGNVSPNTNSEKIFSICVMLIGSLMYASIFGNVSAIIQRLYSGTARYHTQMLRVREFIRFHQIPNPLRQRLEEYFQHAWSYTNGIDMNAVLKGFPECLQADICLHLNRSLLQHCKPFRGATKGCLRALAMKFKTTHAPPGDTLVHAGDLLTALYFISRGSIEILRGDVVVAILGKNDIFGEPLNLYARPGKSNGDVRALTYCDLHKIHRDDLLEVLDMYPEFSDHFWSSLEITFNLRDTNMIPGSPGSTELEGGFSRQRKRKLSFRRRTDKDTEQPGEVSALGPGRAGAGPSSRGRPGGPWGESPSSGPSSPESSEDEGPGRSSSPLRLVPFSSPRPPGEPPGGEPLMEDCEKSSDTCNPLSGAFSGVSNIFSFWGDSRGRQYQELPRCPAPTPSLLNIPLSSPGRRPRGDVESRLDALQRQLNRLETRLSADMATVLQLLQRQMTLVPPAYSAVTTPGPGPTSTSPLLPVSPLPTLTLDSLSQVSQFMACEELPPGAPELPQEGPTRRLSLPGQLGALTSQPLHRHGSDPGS
Description: 1. Preparations of the Solutions and the Compounds
Extracellular fluid (mM): N-2-hydroxyethylpiperazine-N′-2-ethanesulfonic acid (HEPES) 10, NaCl 145, KCl 4, CaCl2 2, MgCl2 1, Glucose 10, adjusted with 1N sodium hydroxide to pH=7.4; the osmotic pressure was adjusted to 290-300 mOsm; filtered and preserved at 4° C.
Intracellular solution (mM): KCl 120, KOH 31.25, CaCl2 5.374, MgCl2 1.75, Ethylene glycol-bis(β-aminoethyl ether)-N,N,N′,N′-tetraacetic acid (EGTA) 10, HEPES 10, Na2-ATP 4, adjusted with 1N potassium hydroxide to pH=7.2; the osmotic pressure was adjusted to 280-290 mOsm; filtered and preserved at −20° C.
Before the experiments, the above stock solutions were diluted with DMSO to the levels that were 333 or 1000 times higher than the experiment concentrations, and then diluted by 333 or 1000 folds with the extracellular fluid to the desired concentrations. The final concentration of DMSO in the extracellular fluid was 0.3% or 0.1%.
2. Electrophysiological experiment. The hERG current was recorded with whole cell patch clamp technique. A cell suspension was added to a 35 mm petri dish, and placed on the object stage of an inverted microscope. After the adherence of cells, the perfusion with the extracellular fluid was done in a perfusion rate of 1-2 ml/min. […] After establishing a whole-cell record, the holding potential was kept at −80 mV. In the voltage stimulation, the depolarization was made at the potential of +60 mV. Then, the repolarization was made at the potential of −50 mV and the hERG tail current was recorded. All of the recordings were conducted after the currents became stable. The extracellular perfusion administration started from the lower concentration, and the administration at each concentration was conducted for 5-10 mines until the current became stable and then the administration at the next concentration was conducted. 3. The Experiment Included the Following Aspects:
The hERG current was recoded on the CHO-K1 cell line stably expressing the hERG channel with the manual patch clamp technology; the inhibition ratio at each concentration was calculated according to the hERG tail current; each of the compounds was measured at five concentrations to deduce the IC50 value; two cells were measured at each concentration; and one positive control drug was used.
4. Data Collection and Processing
The stimulation and the signal collection were accomplished through A/D-D/A digital-analog conversions with Digidata 1440 (Molecular Devices) and pCLAMP software (Version 10.2, Molecular Devices); the signal was amplified with a patch clamp amplifier (Multiclamp 700B, Molecular Devices), and filtered at 1 KHz. The data were further analyzed and subjected to the curve fitting with Clampfit (Version 10.2, Molecular Devices) and Prism. The data were expressed as mean value±standard deviation. The IC50 value was obtained by the fitting based on the Logistic equation:
[formula] • y: the inhibitory percent; max: 100%; min: 0%; [drug]: the concentration of the tested substance; nH: the slope rate; IC50: the half maximal inhibitory concentration of the tested substance.

[3] = test system: HUVEC cells; experiment: In vitro cellular inhibitory activity, h-VEGF-A stimulated HUVEC proliferation; format: cell-based; conditions: Homo sapiens, h-VEGF-A 10 ng/ml, incubated for 89 hours, absorbance at 490 nm, read-out: ED50 for the HUVEC in vitro cells
Description: as §1, §2, §3

[4] = biological target: T1, FGFR3 (Homo sapiens, UniProt P22607); experiment: In vitro enzymology inhibitory activity (Caliper mobility shift kinase assay); format: biochemical; conditions: reaction 1 hour at 28° C., FAM-labelled peptide and ATP
T1 construct: purchased Carna
T1 sequence (P22607 23-806): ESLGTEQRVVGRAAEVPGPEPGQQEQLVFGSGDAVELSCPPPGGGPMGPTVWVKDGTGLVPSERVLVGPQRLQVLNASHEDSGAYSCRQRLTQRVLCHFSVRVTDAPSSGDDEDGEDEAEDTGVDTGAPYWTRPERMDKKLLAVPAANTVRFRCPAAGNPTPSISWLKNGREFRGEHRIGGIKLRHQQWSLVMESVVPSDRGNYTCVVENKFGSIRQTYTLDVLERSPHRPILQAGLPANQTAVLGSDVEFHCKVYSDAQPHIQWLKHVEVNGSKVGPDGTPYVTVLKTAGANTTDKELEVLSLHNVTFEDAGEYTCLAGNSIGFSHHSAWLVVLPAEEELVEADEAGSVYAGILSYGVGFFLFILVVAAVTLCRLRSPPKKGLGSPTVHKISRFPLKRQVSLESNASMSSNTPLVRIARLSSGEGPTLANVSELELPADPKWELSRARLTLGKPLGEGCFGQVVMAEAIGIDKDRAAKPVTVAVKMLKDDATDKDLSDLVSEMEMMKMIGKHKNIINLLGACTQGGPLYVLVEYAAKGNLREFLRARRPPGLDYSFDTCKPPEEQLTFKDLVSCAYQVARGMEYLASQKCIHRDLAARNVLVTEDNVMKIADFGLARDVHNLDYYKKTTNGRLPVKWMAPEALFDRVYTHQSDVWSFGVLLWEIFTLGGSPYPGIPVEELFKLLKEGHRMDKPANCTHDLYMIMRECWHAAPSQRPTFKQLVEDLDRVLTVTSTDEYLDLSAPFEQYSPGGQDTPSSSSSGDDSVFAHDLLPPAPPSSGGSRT
Description: (§4) • (1) Preparation of agents and compounds • (1) 1-fold kinase buffer without MnCl2 (50 mM HEPES, pH=7.5, 0.0015% Brij-35, 10 mM MgCl2, 2 mM DTT) • (2) 1-fold kinase buffer with MnCl2 (50 mM HEPES, pH=7.5, 0.0015% Brij-35, 10 mM MgCl2, 10 mM MnCl2, 2 mM DTT); • (3) Termination solution (100 mM HEPES, pH=7.5, 0.015% Brij-35, 0.2% Coating Reagent #3, 50 mM EDTA); • (4) 2.5-fold kinase solution (the VEGFR2, FGFR1, FGFR3, PDGFRβ kinases were added to the 1-fold kinase buffer respectively to prepare the corresponding 2.5-fold kinase solutions); • (5) 2.5-fold substrate solution: FAM-labelled peptide and ATP were added to the 1-fold kinase buffer to prepare a peptide solution; • (6) 4-fold dilution of the compound solution: the compound was accurately weighed, and dissolved in DMSO. The mixture was mixed sufficiently and evenly to prepare a 10 mM solution. Then the solution was diluted with DMSO to 500 μM, and 4-fold serial dilutions were done at 10 concentrations with a highest concentration of 50μM.
(§5) The calculated inhibition ratio (%)=(max. conversion−sample conversion)/(max. conversion−min. conversion)×100
(§6) The curve fitting was done with the software Xlfit to obtain the IC50 value.

[5] = biological target: T2, PDGFRβ (Homo sapiens, UniProt P09619); experiment: as above; format: biochemical; conditions: reaction 5 hour at 28° C., FAM-labelled peptide and ATP
T2 construct: purchased BPS
T2 sequence (P09619 33-1106): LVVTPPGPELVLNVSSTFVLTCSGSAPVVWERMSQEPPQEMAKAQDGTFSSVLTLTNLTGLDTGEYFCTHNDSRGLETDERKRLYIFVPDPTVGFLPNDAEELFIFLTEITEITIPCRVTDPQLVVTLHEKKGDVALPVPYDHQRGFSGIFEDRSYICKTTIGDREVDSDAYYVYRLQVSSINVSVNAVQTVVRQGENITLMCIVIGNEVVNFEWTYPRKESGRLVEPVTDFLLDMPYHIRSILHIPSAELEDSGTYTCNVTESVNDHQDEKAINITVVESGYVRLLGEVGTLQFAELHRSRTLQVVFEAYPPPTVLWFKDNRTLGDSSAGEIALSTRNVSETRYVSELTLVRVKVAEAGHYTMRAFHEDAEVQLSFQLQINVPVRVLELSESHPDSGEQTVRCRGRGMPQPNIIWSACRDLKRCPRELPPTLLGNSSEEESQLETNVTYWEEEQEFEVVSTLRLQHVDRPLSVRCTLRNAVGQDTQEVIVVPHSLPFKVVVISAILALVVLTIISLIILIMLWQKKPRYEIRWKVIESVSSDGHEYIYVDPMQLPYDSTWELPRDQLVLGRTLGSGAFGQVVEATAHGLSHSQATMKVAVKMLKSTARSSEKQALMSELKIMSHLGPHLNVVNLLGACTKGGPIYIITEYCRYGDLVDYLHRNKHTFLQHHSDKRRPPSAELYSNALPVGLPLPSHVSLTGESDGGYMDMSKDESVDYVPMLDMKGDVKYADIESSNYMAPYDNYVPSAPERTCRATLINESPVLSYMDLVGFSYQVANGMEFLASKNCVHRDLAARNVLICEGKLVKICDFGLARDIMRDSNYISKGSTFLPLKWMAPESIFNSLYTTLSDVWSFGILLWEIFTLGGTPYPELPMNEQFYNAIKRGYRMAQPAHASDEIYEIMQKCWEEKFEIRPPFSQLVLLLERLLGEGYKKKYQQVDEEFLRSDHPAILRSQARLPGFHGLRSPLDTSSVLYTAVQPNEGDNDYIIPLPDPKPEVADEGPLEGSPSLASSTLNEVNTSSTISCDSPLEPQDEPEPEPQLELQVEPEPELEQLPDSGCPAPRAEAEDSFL
Description: as §4, §5, §6

[6] = biological target: T3, FGFR1 (Homo sapiens, UniProt P11362); experiment: as above; format: biochemical; conditions: reaction 1 hour at 28° C., FAM-labelled peptide and ATP
T3 construct: purchased Carna
T3 sequence (P11362 22-822): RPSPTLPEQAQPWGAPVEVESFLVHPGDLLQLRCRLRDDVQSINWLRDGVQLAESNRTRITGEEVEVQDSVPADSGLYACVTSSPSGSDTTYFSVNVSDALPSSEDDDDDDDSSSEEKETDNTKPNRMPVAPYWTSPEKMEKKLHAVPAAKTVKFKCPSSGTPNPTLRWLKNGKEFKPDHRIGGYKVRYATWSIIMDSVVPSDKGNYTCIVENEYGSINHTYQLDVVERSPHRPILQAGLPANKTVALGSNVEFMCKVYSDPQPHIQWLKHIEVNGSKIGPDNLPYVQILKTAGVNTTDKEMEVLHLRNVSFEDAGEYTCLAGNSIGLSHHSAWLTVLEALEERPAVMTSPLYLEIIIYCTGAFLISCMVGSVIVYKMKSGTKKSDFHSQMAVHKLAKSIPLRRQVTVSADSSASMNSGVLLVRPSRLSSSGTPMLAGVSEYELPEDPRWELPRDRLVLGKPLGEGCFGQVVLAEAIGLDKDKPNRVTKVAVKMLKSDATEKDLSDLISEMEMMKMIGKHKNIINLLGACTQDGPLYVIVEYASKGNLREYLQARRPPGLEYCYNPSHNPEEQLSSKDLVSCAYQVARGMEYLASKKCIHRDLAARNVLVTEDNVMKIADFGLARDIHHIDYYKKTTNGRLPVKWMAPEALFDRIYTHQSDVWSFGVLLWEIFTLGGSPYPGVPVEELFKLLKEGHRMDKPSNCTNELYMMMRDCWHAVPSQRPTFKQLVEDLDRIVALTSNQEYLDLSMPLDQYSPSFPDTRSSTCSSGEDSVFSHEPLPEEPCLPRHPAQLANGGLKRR
Description: as §4, §5, §6

SMILES	IC50 [2]	EC50 [3]	other results
COC(=O)c1ccc2c(c1)NC(=O)/C2=C(\Nc1ccc2c(c1)CCN2C(=O)CN1CCOCC1)c1ccccc1 [Compound 7 hydrochloride]			EC50 [1]: 50 to 70 nM
COC(=O)c1ccc2c(c1)NC(=O)/C2=C(\Nc1ccc2c(c1)CCN2C(=O)CN1CC(C)OC(C)C1)c1ccccc1 (stereo not drawn) [Compound 11, methyl(Z)-3-((1-(2-(2,6-dimethylmorpholine)acetyl)indolin-5-ylamino)(phenyl)methylene)-2-oxoindoline-6-carboxylate]	> 30000 nM		
CCOC(=O)c1ccc2c(c1)NC(=O)/C2=C(\Nc1ccc2c(c1)CCN2C(=O)CN1CCN(C)CC1)c1ccccc1 [Compound 4]		120 to 170 nM	
COC(=O)c1ccc2c(c1)NC(=O)/C2=C(\Nc1ccc2c(c1)CCN2C(=O)CCC(=O)N(C)C)c1ccccc1 [Compound 6 hydrochloride]		190 to 280 nM	
COC(=O)c1ccc2c(c1)NC(=O)/C2=C(\Nc1ccc2c(c1)CCN2C(=O)CN1CCN(C)CC1)c1ccc(F)cc1 [Compound 3]		180 to 260 nM	EC50 [1]: 1300 to 1900 nM
COC(=O)c1ccc2c(c1)NC(=O)/C2=C(\Nc1ccc2c(c1)CCN2C(=O)CN1CCCC1=O)c1ccccc1 [Compound 12, methyl(Z)-3-((1-(2-(2-pyrrolidon-1-yl)acetyl)indolin-5-ylamino)(phenyl)methylene)-2-oxoindoline-6-carboxylate]	> 30000 nM		
COC(=O)c1ccc2c(c1)NC(=O)/C2=C(\Nc1ccc(N(C)C(=O)CN2CCN(C)CC2)cc1)c1ccccc1 [Intedanib (BIBF-1120), Intedanib, reference compound]	4900 nM		
COC(=O)c1ccc2c(c1)NC(=O)/C2=C(\Nc1ccc2c(c1)CCN2C(=O)CN1CCCC1=O)c1ccccc1 [Compound 12 hydrochloride, methyl(Z)-3-((1-(2-(2-pyrrolidon-1-yl)acetyl)indolin-5-ylamino)(phenyl)methylene)-2-oxoindoline-6-carboxylate]		20 to 30 nM	IC50 [4]: 1720 nM; IC50 [5]: 19 nM
COC(=O)c1ccc2c(c1)NC(=O)/C2=C(\Nc1ccc2c(c1)CCN2C(=O)CN(C)C)c1ccccc1 [Compound 2 hydrochloride, methyl(Z)-3-((1-(2-(dimethylamino)acetyl)indolin-5-ylamino)(phenyl)methylene)-2oxoindoline-6-carboxylate hydrochloride]			IC50 [4]: 280 nM; IC50 [5]: 15 nM
COC(=O)c1ccc2c(c1)NC(=O)/C2=C(\Nc1ccc2c(c1)CCN2C(=O)CN1CCC(O)CC1)c1ccccc1 [Compound 8]		70 to 100 nM	
COC(=O)c1ccc2c(c1)NC(=O)/C2=C(\Nc1ccc2c(c1)CCN2C(=O)Cn1cccn1)c1ccccc1 [Compound 14 hydrochloride, methyl(Z)-3-((1-(2-(1H-pyrazol-1-yl)acetyl)indolin-5-ylamino)(phenyl)methylene)-2-oxoindoline-6-carboxylate]		70 to 100 nM	IC50 [4]: 4020 nM; IC50 [5]: 24 nM
COC(=O)c1ccc2c(c1)NC(=O)/C2=C(\Nc1ccc2c(c1)CCN2C(=O)CN1CCOCC1)c1ccc(F)cc1 [Compound 9, methyl(Z)-3-((4-fluorophenyl)(1-(2-morpholinylacetyl)indolin-5-ylamino)methylene)-2-oxoindoline-6-carboxylate]	> 30000 nM		
COC(=O)c1ccc2c(c1)NC(=O)/C2=C(\Nc1ccc2c(c1)CCN2C(=O)CC1CCN(C)CC1)c1ccccc1 [Compound 5]		100 to 150 nM	EC50 [1]: 820 to 1240 nM
COC(=O)c1ccc2c(c1)NC(=O)/C2=C(\Nc1ccc2c(c1)CCN2C(=O)Cn1cccn1)c1ccccc1 [Compound 14, methyl(Z)-3-((1-(2-(1H-pyrazol-1-yl)acetyl)indolin-5-ylamino)(phenyl)methylene)-2-oxoindoline-6-carboxylate]	> 30000 nM		
COC(=O)c1ccc2c(c1)NC(=O)/C2=C(\Nc1ccc2c(c1)CCN2C(=O)CN1CC(C)OC(C)C1)c1ccccc1 (stereo not drawn) [Compound 11 hydrochloride, methyl(Z)-3-((1-(2-(2,6-dimethylmorpholine)acetyl)indolin-5-ylamino)(phenyl)methylene)-2-oxoindoline-6-carboxylate]		50 to 80 nM	
CCOC(=O)c1ccc2c(c1)NC(=O)/C2=C(\Nc1ccc2c(c1)CCN2C(=O)CN1CCOCC1)c1ccccc1 [Compound 10, ethyl(Z)-3-((1-(2-morpholinylacetyl)indolin-5-ylamino)(phenyl)methylene)-2-oxoindoline-6-carboxylate]	> 30000 nM		
COC(=O)c1ccc2c(c1)NC(=O)/C2=C(\Nc1ccc2c(c1)CCN2C(=O)Cn1cncn1)c1ccccc1 [Compound 13 hydrochloride, methyl(Z)-3-((1-(2-(1H-1,2,4-triazol-1-yl)acetyl)indolin-5-ylamino)(phenyl)methylene)-2-oxoindoline-6-carboxylate]		60 to 90 nM	IC50 [6]: 700 nM; IC50 [4]: 540 nM; IC50 [5]: 14 nM
COC(=O)c1ccc2c(c1)NC(=O)/C2=C(\Nc1ccc2c(c1)CCN2C(=O)Cn1cncn1)c1ccccc1 [Compound 13, methyl(Z)-3-((1-(2-(1H-1,2,4-triazol-1-yl)acetyl)indolin-5-ylamino)(phenyl)methylene)-2-oxoindoline-6-carboxylate]	> 30000 nM		
COC(=O)c1ccc2c(c1)NC(=O)/C2=C(\Nc1ccc2c(c1)CCN2C(=O)CN1CCOCC1)c1ccccc1 [Compound 7]	> 30000 nM	70 to 100 nM	
